Among the data in paper PMC9965221, “Antiviral Mechanism of Virucidal Sialic Acid Modified Cyclodextrin” (Pharmaceutics, 2023) are Kd values, retold here.

In this test the target is T1, recombinant HA (A/California/04/2009, Met1-Gln549) (Influenza A virus (A/California/04/2009(H1N1)), UniProt C3W5S1).
T1 construct: Met1-Gln549, His-tagged recombinant, immobilised on anti-His probes
Type of test: binding.

T1 sequence (C3W5S1 entry or part of it, added parts left off): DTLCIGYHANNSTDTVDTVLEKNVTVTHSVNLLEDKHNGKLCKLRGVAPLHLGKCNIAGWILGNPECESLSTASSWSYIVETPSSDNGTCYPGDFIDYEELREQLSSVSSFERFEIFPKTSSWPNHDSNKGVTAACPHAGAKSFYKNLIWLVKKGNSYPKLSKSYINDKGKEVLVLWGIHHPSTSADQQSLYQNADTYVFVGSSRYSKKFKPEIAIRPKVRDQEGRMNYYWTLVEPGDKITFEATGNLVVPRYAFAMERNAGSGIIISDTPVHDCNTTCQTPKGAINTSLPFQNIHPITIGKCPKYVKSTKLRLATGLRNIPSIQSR

A word on the Kd: it is the equilibrium constant for the complex coming apart. For `CC(=O)N[C@H]1[C@H]([C@H](O)[C@H](O)CO)O[C@@](OC[C@H]2O[C@@H](O[C@H]3[C@H](O)[C@@H](NC(C)=O)C(O)O[C@@H]3CO)[C@H](O)[C@@H](O)[C@H]2O)(C(=O)O)C[C@@H]1O` (stereo partly shown) [6′SLN], the equilibrium dissociation constant (Kd) was above 5 mM.
